{"source": "patent US20110110860A1", "about": "“MODULATION OF LDL RECEPTOR GENE EXPRESSION WITH DOUBLE-STRANDED RNAS TARGETING THE LDL RECEPTOR GENE PROMOTER” (The Board of Regents of the University of Texas System, priority 2009, published 2011)", "key": {"LDLR [1]": {"test_system": "LDLR", "assay": "Combination treatment with 25-hydroxycholesterol and agRNAs (western, HepG2)", "type": "cell-based, human", "conditions": "25-hydroxycholesterol 2 μM", "procedure": "(§1) Analysis of LDLR protein expression. Cells were harvested 4 days after transfection for western blotting analysis. Cells were detached from plates using cell dissociation solution (Sigma) and lysed with lysis buffer (50 mM Tris-HCl, 120 mM NaCl, 0.5% NP-40, 1 mM EDTA, 1 mM DTT, and protease inhibitor (Calbiochem)). Protein concentrations were quantified with BCA assay kit (Thermo Scientific). SDS-PAGE was performed using 7.5% Tris-HCl gels (Bio-Rad). Gels were run at 100 V for 60 min. After gel electrophoresis, proteins were transferred to nitrocellulose membrane (Hybond-C-Extra; GE Healthcare) at 100 V for 2 h. After blocking the membrane with 5% non-fat dry milk/TBST at room temperature for 1 h, the membrane was incubated with primary antibody specific for LDLR or β-actin at the following dilution ratio: anti-LDLR antibody (ab52818; 1:10,000; abcam), anti-β-actin antibody (1:20,000; Sigma). HRP-conjugated anti-rabbit (1:10,000; Jackson ImmunoResearch) or anti-mouse (1:20,000; Sigma) secondary antibody was used for visualizing proteins using SuperSignal West Pico Chemiluminescent Substrate (Thermo Scientific). Protein bands were quantified using ImageJ software.\nCombination treatment with 25-hydroxycholesterol and agRNAs. dsRNAs (50 nM) were transfected into HepG2 cells as described above (Day 0), and the media were exchanged one day later. […]"}, "LDLR [2]": {"test_system": "LDLR", "assay": "Western analysis of LDLR protein expression in HepG2 cells after transfection of duplex RNAs", "type": "cell-based, human", "conditions": "for effect on LDLR expression (in words): 50 nM, western analysis", "procedure": "Cell culture and transfection. Unmodified, 2′-O-methyl, and 2′-fluoro RNAs with two 2′-deoxythymidine bases at the 3′ end were obtained from Integrated DNA Technologies or Alnylam Pharmaceuticals. HepG2 (American Type Culture Collection (ATCC)) and fibroblast cells (GM04281; Coriell) were cultured with Minimum Essential Medium Eagle (MEM; Sigma) supplemented with 10% FBS, 1% MEM non-essential amino acids (Sigma), and 1 mM sodium pyruvate (Sigma). HuH-7 (Japanese Collection of Research Bioresources) and SW480 cells (ATCC) were cultured with Dulbecco's Modified Eagle's Medium (Sigma) supplemented with 10% FBS and 1 mM sodium pyruvate. Cells were plated in 6-well plates at 120,000 (HepG2 and HuH-7), 60,000 (fibroblast), or 150,000 (SW480) cells/well 2 days before transfection. Duplex RNAs were transfected into cells using Lipofectamine RNAiMAX (Invitrogen). Cationic lipid (2.4 μL for 50 nM dsRNA) was added to OptiMEM (Invitrogen) containing oligonucleotides and the oligonucleotide-lipid mixture (250 μL) was incubated at room temperature for 20 min. OptiMEM (for HepG2 and fibroblast) or full media (for HuH-7 and SW480) was added to a final volume of 1.25 mL and the mixture was applied to cells. Media was exchanged 1 day later with fresh supplemented media (2 mL).\nas §1\n(§2) Analysis of Interferon Responsive Genes. mRNA levels of the interferon responsive genes including OAST, OAS2, MX1, IFITM1, and ISGF3γ were measured by qRT-PCR. agRNAs (50 nM) and Poly I:C (0-100 ng/mL; Sigma) were transfected into HepG2 cells using the cationic lipid as described above. Three days after transfection, total RNAs from dsRNA-treated, poly I:C-treated, or untreated samples were isolated using TRIzol. The RNAs were treated with DNase I at 25° C. for 10 min, followed by reverse transcription reaction at 37° C. for 2 h. qPCR was performed using iTaq SYBR Supermix and primers specific for the interferon responsive genes (Interferon Response Detection Kit; System Biosciences). LDLR protein levels on Day 4 were also measured by western blot analysis."}, "AGO2": {"target": "T1, AGO2 (Homo sapiens, UniProt Q9UKV8)", "T1 construct": "endogenous in cells; host or cells: HepG2", "T1 sequence (Q9UKV8 whole entry)": "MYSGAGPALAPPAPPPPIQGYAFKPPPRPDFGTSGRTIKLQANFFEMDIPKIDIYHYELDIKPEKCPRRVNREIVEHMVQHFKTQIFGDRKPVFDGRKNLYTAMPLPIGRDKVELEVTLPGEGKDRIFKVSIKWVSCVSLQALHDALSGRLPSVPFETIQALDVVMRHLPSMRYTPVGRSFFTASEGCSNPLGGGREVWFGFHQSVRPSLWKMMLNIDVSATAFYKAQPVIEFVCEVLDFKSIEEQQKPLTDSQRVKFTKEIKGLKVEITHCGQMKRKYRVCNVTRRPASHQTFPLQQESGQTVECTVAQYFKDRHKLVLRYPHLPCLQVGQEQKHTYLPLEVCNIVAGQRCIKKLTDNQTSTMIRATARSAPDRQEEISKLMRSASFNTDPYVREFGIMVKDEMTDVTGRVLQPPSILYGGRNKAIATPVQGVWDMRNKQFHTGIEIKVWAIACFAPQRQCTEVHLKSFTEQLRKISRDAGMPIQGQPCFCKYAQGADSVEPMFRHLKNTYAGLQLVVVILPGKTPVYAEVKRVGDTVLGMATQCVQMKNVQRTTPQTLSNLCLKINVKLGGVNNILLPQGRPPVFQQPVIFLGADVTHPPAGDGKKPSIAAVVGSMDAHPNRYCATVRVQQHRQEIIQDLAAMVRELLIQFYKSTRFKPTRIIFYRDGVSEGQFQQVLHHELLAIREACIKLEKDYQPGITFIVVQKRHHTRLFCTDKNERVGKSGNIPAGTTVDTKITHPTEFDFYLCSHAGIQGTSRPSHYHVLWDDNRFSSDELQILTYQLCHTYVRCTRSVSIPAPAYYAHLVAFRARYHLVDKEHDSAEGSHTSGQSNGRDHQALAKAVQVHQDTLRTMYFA", "assay": "RNA immunoprecipitation (RIP) of AGO2 on the LDLR antisense transcript", "type": "cell-based", "conditions": "50 nM, HepG2 cells", "procedure": "Chromatin Immunoprecipitation (ChIP)/RNA Immunoprecipitation (RIP). HepG2 cells were seeded at 1,080,000 cells in 15 cm dishes 2 days before transfection for ChIP or RIP experiments. Two dishes were treated with activating agRNAs (LDLR-24(U/U) and LDLR-28(U/U)) or mismatch controls (LDLRmm1, LDLRmm3, and LDLRmm4) (50 nM). Four days after transfection, cells were crosslinked with 1% formaldehyde. Cells were recovered by scraping and nuclei were isolated using hypotonic lysis buffer (5 mL; 10 mM Tris-HCl (pH 7.5), 10 mM NaCl, 3 mM MgCl2, 0.5% NP-40). Nuclei were lysed in lysis buffer (1 mL; 1% SDS, 10 mM EDTA, 50 mM Tris-HCl (pH 8.1), 1× Roche protease inhibitors cocktail, 40 U/mL RNasin Plus RNase Inhibitor (Promega)) and sonicated (2 pulses, 20% power, 20 sec).\nThe cell lysate (100 μL) was incubated overnight with antibodies in immunoprecipitation buffer (1 mL; 0.01% SDS, 1.1% Triton-X-100, 1.2 mM EDTA, 16.7 mM Tris-HCl (pH 8.1), 167 mM NaCl, and 1× Roche protease inhibitors cocktail, 40 U/mL RNasin Plus RNase Inhibitor). Monoclonal anti-RNAP II (2 μg; Millipore) and polyclonal anti-H3K27me3 (2 μg; Millipore) antibodies were used for ChIP experiments. Polyclonal anti-AGO1 (2 μg; Millipore) and polyclonal anti-AGO2 (2 μg; Millipore) antibodies were used for RIP experiments. […] PCR products were analyzed on 2.5% agarose gel and stained with ethidium bromide."}, "[3]": {"test_system": "interferon responsive genes (OAST, OAS2, MX1, IFITM1, ISGF3γ)", "assay": "Analysis of interferon responsive genes by qRT-PCR in HepG2 cells", "type": "cell-based, human", "conditions": "agRNAs 50 nM, poly I:C 0-100 ng/mL, HepG2, three days after transfection", "procedure": "as §2"}}, "data": [{"compound": "C[C@H](CCCC(C)(C)O)[C@H]1CC[C@H]2[C@@H]3CC=C4C[C@@H](O)CC[C@]4(C)[C@H]3CC[C@]12C", "note": "[25-hydroxycholesterol]", "values": [{"measurement": "baseline LDLR expression with 25-hydroxycholesterol alone", "setting": "LDLR [1]", "value": "lowers baseline LDLR expression"}]}, {"compound": "LDLR-18: agRNA duplex; sense AAAUGACGUGGGCCCCGAGdTdT, antisense CUCGGGGCCCACGUCAUUUdTdT (sense AAAUGACGUGGGCCCCGAGDTDT; antisense CUCGGGGCCCACGUCAUUUDTDT; chemistry not fully specified)", "values": [{"measurement": "effect on LDLR expression (in words)", "setting": "LDLR [2]", "value": "appeared to reduce gene expression"}]}, {"compound": "LDLR-35: agRNA duplex; sense UCACAUUGAAAUGCUGUAAdTdT, antisense UUACAGCAUUUCAAUGUGAdTdT (sense UCACAUUGAAAUGCUGUAADTDT; antisense UUACAGCAUUUCAAUGUGADTDT; chemistry not fully specified)", "values": [{"measurement": "effect on LDLR expression (in words)", "setting": "LDLR [2]", "value": "appeared to reduce gene expression"}]}, {"compound": "LDLR-65: agRNA duplex; sense CACUGCAAACUCCUCCCCCdTdT, antisense GGGGGAGGAGUUUGCAGUGdTdT (sense CACUGCAAACUCCUCCCCCDTDT; antisense GGGGGAGGAGUUUGCAGUGDTDT; chemistry not fully specified)", "values": [{"measurement": "effect on LDLR expression (in words)", "setting": "LDLR [2]", "value": "appeared to reduce gene expression"}]}, {"compound": "LDLRmm3: mismatch duplex disrupting predicted seed sequence; sense UCCAGAAAAUGACGUGGGCdTdT, antisense GCCCACGUCAUUUUCUGGAdTdT (sense UCCAGAAAAUGACGUGGGCDTDT; antisense GCCCACGUCAUUUUCUGGADTDT; chemistry not fully specified)", "values": [{"measurement": "recruitment of AGO2 to the LDLR antisense transcript", "setting": "AGO2", "value": "not"}]}, {"compound": "LDLRmm4: mismatch duplex, three mismatches outside seed sequence; sense UGCUGUAAAUGAGGAGCGCdTdT, antisense GCGCUCCUCAUUUACAGCAdTdT (sense UGCUGUAAAUGAGGAGCGCDTDT; antisense GCGCUCCUCAUUUACAGCADTDT; chemistry not fully specified)", "values": [{"measurement": "effect on LDLR expression (in words)", "setting": "LDLR [2]", "value": "activation"}, {"measurement": "recruitment of AGO2 to the LDLR antisense transcript", "setting": "AGO2", "value": "recruitment of AGO2"}]}, {"compound": "polyinosinic-polycytidylic acid [poly I:C]", "values": [{"measurement": "effect of poly I:C on LDLR expression", "setting": "LDLR [2]; any concentrations tested (0-100 ng/mL), Day 4 western", "value": "did not upregulate LDLR expression"}, {"measurement": "interferon-responsive gene expression (OAST, OAS2, MX1, IFITM1, ISGF3γ)", "setting": "[3]", "value": "substantially increases"}]}]}
